Laboratory results published in ChEMBL document CHEMBL4325866, “Discovery of a subnanomolar and selective spirocyclic agonist of the glucocorticoid receptor” (Eur J Med Chem, 2019).

Columns and labels:
Glucocorticoid receptor = target: T1, Glucocorticoid receptor (Homo sapiens, UniProt P04150); test: Displacement of [3H]dexamethasone from GR in human IM9 cells after 6 hrs by scintillation counting method; type: cell-based
T1 sequence (P04150 whole entry): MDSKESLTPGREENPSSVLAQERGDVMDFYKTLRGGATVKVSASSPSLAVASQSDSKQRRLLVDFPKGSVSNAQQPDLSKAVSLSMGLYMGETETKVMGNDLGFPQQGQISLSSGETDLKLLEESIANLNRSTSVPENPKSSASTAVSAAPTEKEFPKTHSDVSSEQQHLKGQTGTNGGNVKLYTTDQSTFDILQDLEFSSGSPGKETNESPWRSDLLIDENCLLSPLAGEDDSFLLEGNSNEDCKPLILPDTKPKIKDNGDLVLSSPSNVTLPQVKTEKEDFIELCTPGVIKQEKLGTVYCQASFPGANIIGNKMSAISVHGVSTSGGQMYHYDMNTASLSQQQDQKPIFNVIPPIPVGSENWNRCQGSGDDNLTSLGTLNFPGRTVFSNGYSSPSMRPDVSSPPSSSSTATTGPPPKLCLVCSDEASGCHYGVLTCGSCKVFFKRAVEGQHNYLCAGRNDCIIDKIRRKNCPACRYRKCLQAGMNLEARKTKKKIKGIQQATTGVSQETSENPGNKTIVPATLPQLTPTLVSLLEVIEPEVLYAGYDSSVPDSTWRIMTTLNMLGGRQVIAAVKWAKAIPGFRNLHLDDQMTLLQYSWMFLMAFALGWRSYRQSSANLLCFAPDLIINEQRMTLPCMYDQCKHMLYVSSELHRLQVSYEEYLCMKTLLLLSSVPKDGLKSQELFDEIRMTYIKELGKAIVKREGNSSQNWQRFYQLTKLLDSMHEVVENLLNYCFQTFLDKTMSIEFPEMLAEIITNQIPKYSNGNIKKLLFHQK

Progesterone receptor = target: T2, Progesterone receptor (Homo sapiens, UniProt P06401); test: Displacement of [3H]progesterone from progesterone receptor in human T47D cells after 20 hrs by scintillation counting method; type: cell-based
T2 sequence (P06401 whole entry): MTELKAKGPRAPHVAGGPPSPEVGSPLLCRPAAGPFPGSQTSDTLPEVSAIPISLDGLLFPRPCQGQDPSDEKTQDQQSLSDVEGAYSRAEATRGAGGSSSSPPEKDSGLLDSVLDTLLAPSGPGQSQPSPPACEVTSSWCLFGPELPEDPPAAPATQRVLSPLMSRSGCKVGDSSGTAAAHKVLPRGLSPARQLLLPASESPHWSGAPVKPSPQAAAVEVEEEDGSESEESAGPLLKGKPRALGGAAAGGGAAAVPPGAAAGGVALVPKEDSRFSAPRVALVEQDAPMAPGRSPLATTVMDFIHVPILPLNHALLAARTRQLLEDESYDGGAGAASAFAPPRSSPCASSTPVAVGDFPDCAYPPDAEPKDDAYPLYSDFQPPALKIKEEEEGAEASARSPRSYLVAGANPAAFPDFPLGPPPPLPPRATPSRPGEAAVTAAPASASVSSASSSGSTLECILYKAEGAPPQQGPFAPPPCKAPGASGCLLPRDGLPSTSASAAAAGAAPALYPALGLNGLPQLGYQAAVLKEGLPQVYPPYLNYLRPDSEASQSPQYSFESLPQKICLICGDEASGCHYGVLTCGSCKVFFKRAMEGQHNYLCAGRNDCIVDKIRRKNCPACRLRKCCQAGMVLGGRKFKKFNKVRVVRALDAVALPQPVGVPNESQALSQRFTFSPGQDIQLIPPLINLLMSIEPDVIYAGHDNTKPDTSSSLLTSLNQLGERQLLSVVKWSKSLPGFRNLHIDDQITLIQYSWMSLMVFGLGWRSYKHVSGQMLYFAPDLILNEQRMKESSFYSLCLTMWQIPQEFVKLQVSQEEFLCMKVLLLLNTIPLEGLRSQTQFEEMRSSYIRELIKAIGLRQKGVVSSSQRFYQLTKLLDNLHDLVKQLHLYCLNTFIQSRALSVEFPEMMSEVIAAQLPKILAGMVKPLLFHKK

A549 [1] = test: Antiinflammatory activity in human A549 cells assessed as inhibition of IL1beta-induced IL6 production preincubated for 30 mins followed by IL1beta-stimulation and measured after 20 hrs by AlphaLisa assay; type: functional, cell-based
Blood = test: Antiinflammatory activity in Sprague-Dawley rat whole blood assessed as inhibition of LPS-induced TNFalpha production measured after 18 hrs by AlphaLisa assay; type: functional, tissue-based
[2] = target: T3, Glucocorticoid receptor (Homo sapiens) (UniProt P04150); test: Potency index, ratio of prednisolone IC50 to test compound IC50 for displacement of [3H]dexamethasone from GR in human IM9 cells; type: cell-based
T3 sequence (whole entry): T1 sequence (P04150 whole entry)

A549 [3] = test: Potency index, ratio of prednisolone IC50 to test compound IC50 for inhibition of IL1beta-induced IL6 production in human A549 cells; type: functional

Row | SMILES | IC50 (Glucocorticoid receptor) [nM] | further results
1 | O[C@@]1(c2ccccc2)CCCCC[C@@]12C=Cc1c(cnn1-c1ccc(F)cc1)C2 | 6 | IC50 (Progesterone receptor): > 1000 nM
2 | O[C@@]1(c2ccccc2)CCCC[C@@]12C=Cc1c(cnn1-c1ccc(F)cc1)C2 | 0.41 | IC50 (A549 [1]): 0.5 nM; IC50 (Blood): 4 nM; Ratio IC50 [2]: 30; IC50 (Progesterone receptor): 780 nM; Ratio IC50 (A549 [3]): 10
3 | Oc1ccc(C2=CCCC[C@]23C=Cc2c(cnn2-c2ccc(F)cc2)C3)cc1 | 10 | 
4 | O[C@]1(c2ccccc2)CCCC[C@@]12C=Cc1c(cnn1-c1ccc(F)cc1)C2 | 1010 | 
5 | O[C@H]1C(Cc2ccccc2)(Cc2ccccc2)CCC[C@]12C=Cc1c(cnn1-c1ccc(F)cc1)C2 | > 1000 | 
6 | COc1ccc(C2=CCCC[C@]23C=Cc2c(cnn2-c2ccc(F)cc2)C3)cc1 | 135 | 
7 | O[C@H]1[C@@H](Cc2ccccc2)CCC[C@]12C=Cc1c(cnn1-c1ccc(F)cc1)C2 | > 1000 | 
8 | O[C@]1(Cc2ccccc2)CCCCC[C@@]12C=Cc1c(cnn1-c1ccc(F)cc1)C2 | 130 | 
9 | C[C@]12C=CC(=O)C=C1CC[C@@H]1[C@@H]2[C@@H](O)C[C@@]2(C)[C@H]1CC[C@]2(O)C(=O)CO [PREDNISOLONE] |  | IC50 (A549 [1]): 5.8 nM; IC50 (Blood): 4.6 nM
10 | O[C@@]1(c2ccccc2)CCC[C@]12C=Cc1c(cnn1-c1ccc(F)cc1)C2 | > 1000 | 
11 | O[C@]1(c2ccccc2)CCCCC[C@@]12C=Cc1c(cnn1-c1ccc(F)cc1)C2 | 9.5 | 
12 | Fc1ccc(-n2ncc3c2C=C[C@]2(CCCC=C2c2ccccc2)C3)cc1 | 20 | IC50 (Progesterone receptor): > 1000 nM
13 | C#CC[C@H]1CCC[C@]2(C=Cc3c(cnn3-c3ccc(F)cc3)C2)[C@H]1O | > 1000 | 
14 | O[C@@]1(Cc2ccccc2)CCCCC[C@@]12C=Cc1c(cnn1-c1ccc(F)cc1)C2 | 89 | 
